Test results published in patent US8143276B2, “4-thio substituted quinoline and naphthyridine compounds” (XTL Biopharmaceuticals Ltd., priority 2007, dated 2012).

Experiments:
HCV Replicon = HCV Replicon Luciferase Assay; assay type: cell-based, Hepatitis C virus; details: Huh-Luc-Neo cells, 48 h incubation, luciferase reporter; read-out: Replicon Inhibition*, Luciferase
Procedure: The identification of inhibitors of HCV replication and/or proliferation has been facilitated by the development of a cell-based system to study HCV replication. Inhibition of HCV replication may be performed using the HCV Replicon Assay developed in the laboratories of Bartenschlager (Lohman et al, Science 285, 110-113, 1999) and Rice (Blight et al, Science 290, 1972-1974, 2000). The assay is performed using the Huh-Luc-Neo cell line (Lohman et al, Science 285, 110-113, 1999). Huh-Luc-Neo cells are a human hepatoma cell line (Huh-7) stably expressing a bi-cistronic subgenomic replicon containing the HCV IRES in which the structural proteins of HCV have been deleted and replaced by a construct containing sequences coding for the firefly luciferase reporter gene, the neomycin selectable marker and the EMCV IRES to direct expression of a truncated HCV genome expressing the […] NS3, NS4A, NS4B, NS5A, and NS5B. HCV targets through which inhibitors could act to inhibit replication include the NS3 protease, the helicase/ATPase, NS5A, the NS5B-RNA dependent RNA polymerase, and the HCV IRES.
(§1) Expression of HCV IRES driven luciferase reporter activity and HCV RNA is measured to obtain indirect and direct measures of replication of HCV RNA respectively. Inhibitors of HCV replication and/or proliferation are determined by initially identifying molecules that inhibit expression of the HCV IRES driven luciferase reporter in this HCV Replicon Luciferase Assay. Cell viability assays and control cell based luciferase assays are then run on hits identified in the HCV Replicon Luciferase Assay to eliminate cytoxic compounds and non-specific compounds which act by inhibiting the luciferase enzyme.
(§2) Day 0, Cell Seeding and Compound Treatment: Huh-Luc-Neo Cells are seeded at 25,000/well in an opaque-walled 96 plate with Growth Medium (DMEM phenol red free+PS+2 mM glutamine; 100 μl/well). The compounds to be tested are added to the experimental wells (10 μl/well at 10× assay concentration) and the cells are then incubated (5% CO2, 37° C.) for 48 h.
Day 2, Reagent Preparation and Luciferase Assay: The Bright-Glo Luciferase Assay Buffer (Promega) is thawed and equilibrated to room temperature prior to use. The lyophilized Bright-Glo Luciferase Assay Substrate is equilibrated to room temperature prior to use. 10 ml of Bright-Glo Luciferase Assay Buffer is transferred to 1 vial of Bright-Glo Luciferase Assay Substrate bottle and mixed by gently with a Vortex. 100 μl of Bright-Glo Luciferase Assay reagent (Bright-Glo Luciferase Assay Buffer+Bright-Glo Luciferase Assay Substrate Mixture) is added to each well. The well contents are mixed for 5 min. on an orbital shaker at room temperature to induce cell lysis and the luminescence is then measured using a luminometer. The data is analyzed and IC50s are determined using GraphPad Prism 4 software. Hits validated in the Replicon Luciferase assay have IC50s<8.0 μM and show <30% inhibition of Cell Viability at a compound concentration of 100 μM (Cell Titer Glow Assay, cell viability assay conditions identical to HCV Replicon Luciferase Assay conditions).

HCV RNA = experiment: HCV Replicon RNA Assay (Taqman); assay type: cell-based, Hepatitis C virus; details: Huh-Luc-Neo cells, compound re-added at 24 h, HCV RNA by quantitative PCR; read-out: Replicon Inhibition*, Taqman
Procedure: as §1
as §2, with “C.).” for “C.) for 48 h.”
Day 1, Media Change and Compound Treatment: 24 hours after the initial compound treatment the cell culture media is aspirated from the wells and fresh Growth Medium is added (DMEM phenol red free+PS+2 mM glutamine; 100 μl/well). The compounds to be tested are then added to the appropriate experimental wells (10 μl/well at 10× assay concentration) and the cells are then incubated (5% CO2, 37° C.) for an additional 24 hrs.
Day 2, RNA Isolation and cDNA Synthesis: The cells are washed with 1× Phosphate Buffered Saline (PBS) once.
Day 3, Quantitative PCR Based Measurement of HCV RNA (Taqman Assay): Quantitative PCR analysis to measure HCV RNA expression from cDNA synthesized on Day 2 is performed using the ABI 9700 HT Sequence Detection System (Applied Biosystems) as previously described (Lohman et al, Science 285, 110-113, 1999). The data is analyzed and IC50s are determined using GraphPad Prism 4 software. Hits validated in the Replicon RNA Assay have IC50s<8.0 μM and show <30% inhibition of Cell Viability at a compound concentration of 50 μM (Cell Titer Glow Assay, cell viability assay conditions identical to HCV Replicon RNA Assay conditions).

Huh-Luc-Neo Cells = experiment: CellTiter-Glo Cell Viability Assay; assay type: cell-based, human; details: 48 h, read-out: Cytotoxicity*
Procedure: as §2, with “ul/well).” for “μl/well).”, “tested for inhibition of cell viability” for “tested”
Day 2, Reagent Preparation and Assay: The CellTiter-Glo Buffer is thawed and equilibrated to room temperature prior to use. The lyophilized CellTiter-Glo Substrate is equilibrated to room temperature prior to use. 10 ml of CellTiter-Glo Buffer is transferred to 1 vial of CellTiter-Glo Substrate and mixed by gently with a Vortex. 100 μl of CellTiter-Glo Assay reagent (CellTiter-Glo Buffer+CellTiter-Glo Substrate Mixture) is added to each well. The well contents are mixed for 5 min. on an orbital shaker at room temperature to induce cell lysis and the luminescence is then measured using a luminometer.

Cn1c(=O)cc(Sc2ccccc2F)c2ccccc21 [compound 008]
IC50 (HCV Replicon): 1 to 10 µM | IC50 (HCV RNA): 1 to 10 µM | IC50 (Huh-Luc-Neo Cells): > 100 µM
